{"source": "patent US6500472B2", "about": "“Folic acid and/or vitamin B12-lactoferrin complex” (Snow Brand Milk Products Co., Ltd., priority 2000, dated 2002)", "key": {"[1]": {"biological_target": "T1, lactoferrin (Bos taurus, UniProt P24627)", "T1 sequence (P24627 20-708)": "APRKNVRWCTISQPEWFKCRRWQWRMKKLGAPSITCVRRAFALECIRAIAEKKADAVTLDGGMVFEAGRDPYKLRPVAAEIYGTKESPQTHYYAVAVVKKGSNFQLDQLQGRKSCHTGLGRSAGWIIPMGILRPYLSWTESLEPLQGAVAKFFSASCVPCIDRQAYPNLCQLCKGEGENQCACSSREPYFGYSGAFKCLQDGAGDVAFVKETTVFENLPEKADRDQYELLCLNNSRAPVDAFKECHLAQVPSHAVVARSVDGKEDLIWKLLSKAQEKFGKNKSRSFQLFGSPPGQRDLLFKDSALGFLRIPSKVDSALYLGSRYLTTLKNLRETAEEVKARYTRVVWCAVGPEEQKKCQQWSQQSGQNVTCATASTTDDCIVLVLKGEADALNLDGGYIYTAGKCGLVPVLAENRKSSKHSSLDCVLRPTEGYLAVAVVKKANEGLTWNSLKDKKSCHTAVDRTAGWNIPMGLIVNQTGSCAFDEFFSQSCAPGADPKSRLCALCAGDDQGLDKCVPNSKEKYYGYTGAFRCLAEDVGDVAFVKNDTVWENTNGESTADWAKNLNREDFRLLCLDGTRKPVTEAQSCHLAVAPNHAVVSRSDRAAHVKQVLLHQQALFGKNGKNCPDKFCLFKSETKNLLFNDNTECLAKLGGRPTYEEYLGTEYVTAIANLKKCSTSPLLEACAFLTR", "experiment": "Vitamin B12 held by lactoferrin (UF membrane separation, method using microorganisms)", "format": "binding", "details": "for Amount of vitamin B12 held per 1 μmol of lactoferrin: imidazole buffer pH 6.5", "procedure": "The resultant solution was treated with a UF membrane (cut-off molecular weight: 5 kDa; a product of Millipore Corp.) to separate it into the permeate and the retentate. Further, a 50 mM imidazole buffer solution (pH 6.5) was added to the remaining retentate to recover the permeate. This process was repeated four times and the resulting permeate was diluted […] to recover whole free vitamin B12 into the permeate. Further, the pH of the vitamin B12-lactoferrin complex sample in the retentate was adjusted to 2.0, 2 mg of pepsin (a product of Sigma) per 1 ml sample were added, and proteolysis was carried out at 37 C for 60 minutes, after which the pH was further adjusted to 7.5, 2 mg of trypsin (a product of Sigma) per 1 ml sample were added, and proteolysis was carried out at 37 C for 120 minutes. After heating, the supernatant was recovered by centrifugation at 15,000 G. The amount of vitamin B12 was measured by a method using microorganisms (Encyclopedia of Vitamins, the Japanese Association of Vitaminology, Asakura Shoten, p. 501, 1996). Further, a calibration curve was obtained by using cyanocobalmin (a product of Sigma)."}, "[2]": {"experiment": "Vitamin B12 reduction after sterilization at 90 C and storage at 35 C for 2 months", "format": "physicochemical", "details": "sterilized 90 C 30 min, stored 35 C 2 months", "procedure": "[…] The resultant admixture was subjected to dialysis using a dialysis membrane (cut-off molecular weight: 5 kDa) against deionized water and then to freeze-drying to obtain a vitamin B12-lactoferrin complex in which 57 molecules of vitamin B12 were held per one molecule of lactoferrin. […] […] Portions (5 ml) of each sample solution were dispensed into heat-resistant glass bottles and sealed, sterilized at 90 C for 30 minutes and then stored at 35 C for 2 months. The reduction rates of vitamin B12 were measured. The amount of vitamin B12 was measured in the same manner as in Test Example 5."}, "[3]": {"experiment": "Stability of folic acid in citric acid buffer pH 2.5 after sterilization and storage at 37 C", "format": "physicochemical", "procedure": "Folic acid and the folic acid-lactoferrin complex used in Test Example 2 were each added to a 10 mM citric acid buffer solution (pH 2.5) at a folic acid concentration of 0.25 μmol/10 ml. Next, 50 ml portions of the solutions were dispensed in brown bottles, sterilized at 90 C for 30 minutes and then stored at 37 C. The amount of folic acid was measured in the same manner as in Test Example 2."}, "[4]": {"biological_target": "T1, lactoferrin", "experiment": "Folic acid held by lactoferrin (UF membrane separation, free folic acid by optical density at 362 nm)", "format": "binding", "details": "for Amount of folic acid held per 1 μmol of lactoferrin: 50 mM sodium bicarbonate pH 8.5", "procedure": "A lactoferrin solution at a concentration of 1 μmol/20 ml was prepared by dissolving lactoferrin in a 50 mM sodium bicarbonate aqueous solution (pH 8.5), and folic acid was added at a concentration of 10 to 300 μmol/20 ml. The resultant admixture was treated with an ultrafiltration (UF) membrane (cut-off molecular weight: 5 kDa; a product of Millipore Corp.) to separate it into the permeate and the retentate. Further, a 50 mM sodium bicarbonate aqueous solution (pH 8.5) was added to the remaining retentate to recover the permeate. This process was repeated four times and the resulting permeate was diluted […] to recover the whole free folic acid into the permeate. The amount of binding-type folic acid remaining in the retentate was calculated from the amount of free folic acid contained in the recovered permeate obtained by measuring optical density at 362 nm. Upon measuring the optical density for folic acid, it was confirmed that no protein was eluted into the permeate and no inhibiting substance derived from proteins existed. Further, a folic acid aqueous solution without protein was simultaneously subjected to the UF membrane treatment to prepare a control sample. These operations and measurements were performed in the dark to prevent decomposition of folic acid. No decomposition of folic acid during the measurement was confirmed by the optical density measurement."}, "[5]": {"details": "cited from earlier work"}, "[6]": {"experiment": "Turbidity at 660 nm / solubility in deionized water", "format": "physicochemical", "procedure": "Folic acid and the folic acid-lactoferrin complex used in Test Example 2 were each added to deionized water at a folic acid concentration of 0.1 to 10 μmol/10 ml to measure turbidity at 660 nm."}, "[7]": {"experiment": "Light radiation test (40-watt fluorescent lamp), folic acid measured by method using microorganisms", "format": "physicochemical", "details": "phosphate buffer pH 6.5", "procedure": "A light radiation test was carried out with a folic acid-lactoferrin complex. Namely, to a 1 μmol lactoferrin solution which was prepared by dissolving lactoferrin into 50 ml of a 50 mM sodium bicarbonate aqueous solution (pH 8.5) was added folic acid to make a 100 μmol solution. The resultant admixture was subjected to dialysis using a dialysis membrane (cut-off molecular weight: 10 kDa) against a 5 mM phosphate buffer solution (pH 6.5) and then to freeze-drying to obtain a folic acid-lactoferrin complex. The resulting folic acid-lactoferrin complex powder was dissolved in a 50 mM phosphoric acid buffer solution (pH 6.5) at a concentration of 3 mg/100 ml. Separately, folic acid (a product of Sigma) was dissolved in a 50 mM phosphoric acid buffer solution (pH 6.5) at a concentration of 0.8 mg/100 ml. Each sample solution (5 ml) was dispensed into a transparent polyethylene container, water was added to a depth of 5 mm, and the solution was subjected to radiation with a 40-watt fluorescent lump from a height of 30 mm, after which the amount of folic acid was measured by a method using microorganisms. Namely, the pH of the folic acid-lactoferrin complex sample was adjusted to 2.0, 2 mg of pepsin (a product of Sigma) per 1 ml sample were added, and proteolysis was carried out at 37 C for 120 minutes, after which the pH was further adjusted to 7.5, 2 mg of trypsin (a product of Sigma) per 1 ml sample were added, and proteolysis was carried out at 37 C for 120 minutes. After deaeration, the reaction solution was heated for 5 minutes and centrifuged at 15,000 G to recover the supernatant. The amount of folic acid was measured by a method using microorganisms (Davis, R. E., D. J. Nicol & A. Kelly, J. Clin. Path., vol. 23, pp. 47-53, 1970). Further, a calibration curve was obtained by using folic acid (a product of Sigma). These operations and measurements were carried out in the dark except for the fluorescent radiation."}, "[8]": {"details": "Folic acid concentration 0.1 μmol/10 ml in deionized water"}, "[9]": {"details": "Folic acid concentration 1.0 μmol/10 ml in deionized water"}, "[10]": {"details": "Folic acid concentration 10 μmol/10 ml in deionized water"}}, "note": "Where two headings read alike, the source gives them in different places."}
{"compound": "Vitamin B12", "values": [{"measurement": "Amount of vitamin B12 held per 1 μmol of lactoferrin", "setting": "[1]; Vitamin B12 added 10 μmol", "value": 4.2, "unit": "µmol"}, {"measurement": "Amount of vitamin B12 held per 1 μmol of lactoferrin", "setting": "[1]; Vitamin B12 added 100 μmol", "value": 41, "unit": "µmol"}, {"measurement": "Amount of vitamin B12 held per 1 μmol of lactoferrin", "setting": "[1]; Vitamin B12 added 500 μmol", "value": 130, "unit": "µmol"}, {"measurement": "Maximal amount of vitamin B12 carried", "setting": "[1]; maximally", "value": "about 100 molecules per one molecule of lactoferrin"}, {"measurement": "Vitamin B12 reduction rate", "setting": "[2]; pH 3.0", "value": 48, "unit": "%"}, {"measurement": "Vitamin B12 reduction rate", "setting": "[2]; pH 7.5", "value": 8, "unit": "%"}]}
{"compound": "Nc1nc2ncc(CNc3ccc(C(=O)N[C@@H](CCC(=O)O)C(=O)O)cc3)nc2c(=O)[nH]1", "note": "[Folic acid]", "values": [{"measurement": "Folic acid", "setting": "[3]; Before heat pasteurization, citric acid buffer pH 2.5", "value": 0.28, "unit": "μmol/10 ml"}, {"measurement": "Folic acid", "setting": "[3]; Immediately after heat pasteurization (90 C, 30 min), pH 2.5", "value": 0.18, "unit": "μmol/10 ml"}, {"measurement": "Folic acid", "setting": "[3]; Stored for 2 months at 37 C, pH 2.5", "value": 0.05, "unit": "μmol/10 ml"}, {"measurement": "Folic acid", "setting": "[3]; Stored for 4 months at 37 C, pH 2.5", "value": 0.01, "unit": "μmol/10 ml"}, {"measurement": "Amount of folic acid held per 1 μmol of lactoferrin", "setting": "[4]; Folic acid added 10 μmol", "value": 9.3, "unit": "µmol"}, {"measurement": "Amount of folic acid held per 1 μmol of lactoferrin", "setting": "[4]; Folic acid added 50 μmol", "value": 40, "unit": "µmol"}, {"measurement": "Amount of folic acid held per 1 μmol of lactoferrin", "setting": "[4]; Folic acid added 100 μmol", "value": 79, "unit": "µmol"}, {"measurement": "Amount of folic acid held per 1 μmol of lactoferrin", "setting": "[4]; Folic acid added 200 μmol", "value": 160, "unit": "µmol"}, {"measurement": "Amount of folic acid held per 1 μmol of lactoferrin", "setting": "[4]; Folic acid added 300 μmol", "value": 210, "unit": "µmol"}, {"measurement": "Maximal amount of folic acid incorporated", "setting": "[4]; maximally", "value": "about 200 molecules per one molecule of lactoferrin"}, {"measurement": "Folic acid lost", "setting": "[5]; cow's milk, heat sterilization or during storage", "value": "about 60%"}, {"measurement": "Folic acid lost", "setting": "[5]; powdered milk", "value": 25, "unit": "%"}, {"measurement": "Appearance of solution", "setting": "[6]; [8]", "value": "Slightly turbid"}, {"measurement": "Turbidity at 660 nm", "setting": "[6]; [8]", "value": 0.01}, {"measurement": "Appearance of solution", "setting": "[6]; [9]", "value": "Insoluble"}, {"measurement": "Turbidity at 660 nm", "setting": "[6]; [9]", "value": 0.025}, {"measurement": "Appearance of solution", "setting": "[6]; [10]", "value": "Insoluble"}, {"measurement": "Turbidity at 660 nm", "setting": "[6]; [10]", "value": 0.034}, {"measurement": "Solubility of folic acid in deionized water", "setting": "[6]; deionized water", "value": "less than 0.1 μmol/10 ml"}, {"measurement": "Folic acid", "setting": "[7]; Radiation time 0 min", "value": 0.16, "unit": "μmol/10 ml"}, {"measurement": "Folic acid", "setting": "[7]; Radiation time 0.5 min", "value": 0.13, "unit": "μmol/10 ml"}, {"measurement": "Folic acid", "setting": "[7]; Radiation time 7 min", "value": 0.03, "unit": "μmol/10 ml"}]}
